Results taken from US20240287138A1, “CYCLIC PEPTIDES FOR INHIBITING TNF RECEPTOR 1 ACTIVITY” (Merck Sharp & Dohme LLC, priority 2023, published 2024).
Numbered stars: 1 amine (or outer) side, 2 acyl side, 3 side chain; on linkers, the order of the positions; unused ones are H or OH. Square brackets hold non-standard residues; d marks the D form. Peptide text beside a SMILES is read from it. * marks the point of attachment. Trp(βS-Me,7-OMe) = COc1cccc2c([C@H](C)[C@H](N)C(=O)O)c[nH]c12; Trp(1-CH2COOH) = N[C@@H](Cc1cn(CC(=O)O)c2ccccc12)C(=O)O; Phe(4-CH2CH2COOH) = N[C@@H](Cc1ccc(CCC(=O)O)cc1)C(=O)O; Phe(4-SO2NH2) = N[C@@H](Cc1ccc(S(N)(=O)=O)cc1)C(=O)O; Trp(7-CN) = N#Cc1cccc2c(C[C@H](N)C(=O)O)c[nH]c12; X20 = O=C1NCc2ccc(C[C@H](N[*:1])C(=O)[*:2])cc21; Phe(4-CONH2) = NC(=O)c1ccc(C[C@H](N)C(=O)O)cc1; Phe(4-COOH) = N[C@@H](Cc1ccc(C(=O)O)cc1)C(=O)O; 4Pal(3S-Me) = C[C@@H](c1ccncc1)[C@H](N)C(=O)O; Trp(7-aza) = N[C@@H](Cc1c[nH]c2ncccc12)C(=O)O; Phe(4-CH2NH2) = NCc1ccc(C[C@H](N)C(=O)O)cc1; dPro(4S-NH2) = N[C@@H]1CN[C@@H](C(=O)O)C1; Pip(5R-OH) = O=C(O)[C@@H]1CC[C@@H](O)CN1; X1 = O=C([C@@H]1CC[C@H](N[*:1])C1)[*:2]; 4Pal = N[C@@H](Cc1ccncc1)C(=O)O; dHyp = O=C(O)[C@H]1C[C@H](O)CN1; Ahp(2) = CCCCC[C@H](N)C(=O)O; hSer = N[C@@H](CCO)C(=O)O; αMeS = C[C@](N)(CO)C(=O)O; Carboxymethyl = O=C(O)C*; Nle = CCCC[C@H](N)C(=O)O; Sar = CNCC(=O)O

The compounds below were run against T1, human soluble TNFR1 (sTNFR1) (Homo sapiens, UniProt P19438) (assay: Human sTNFR1-peptide displacement assay (LanthaScreen Eu TR-FRET binding assay)). Conditions: not given.
T1 construct: made in house; host or cells: Sf21 (baculovirus)
T1 sequence (P19438 with tags, fused parts or gaps): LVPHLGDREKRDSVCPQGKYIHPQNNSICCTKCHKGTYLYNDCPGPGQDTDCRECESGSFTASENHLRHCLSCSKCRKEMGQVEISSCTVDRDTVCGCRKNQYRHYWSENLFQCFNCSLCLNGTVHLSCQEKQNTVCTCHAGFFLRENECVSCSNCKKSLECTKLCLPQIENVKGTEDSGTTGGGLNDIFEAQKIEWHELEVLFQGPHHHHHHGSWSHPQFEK
How it was run: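 Readout is the 665/615 nm TR-FRET ratio (Eu anti-His donor, streptavidin-Alexa647 acceptor), normalized to DMSO and saturating displacer, fit by Morrison-based five-parameter logistic for Kd^app. His-tagged sTNFR1 (1-211) prebound to 100 nM biotinylated peptide SEQ ID NO.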

SMILES | Kd
CCCCC[C@@H]1NC(=O)[C@@H]2CC[C@@H](C2)NC(=O)[C@H]([C@@H](C)c2c[nH]c3c(OC)cccc23)NC(=O)CN(C)C(=O)[C@H](Cc2ccc(C(N)=O)cc2)NC(=O)[C@H](Cc2ccc(C(N)=O)cc2)NC(=O)[C@](C)(CO)NC(=O)[C@H](Cc2c[nH]c3c(C#N)cccc23)NC(=O)[C@H](Cc2ccc(C(=O)O)cc2)NC(=O)[C@H](CC(N)=O)NC(=O)[C@H]2C[C@H](O)CN2C(=O)[C@H](Cc2c[nH]c3ccccc23)NC(=O)[C@H](CCO)NC(=O)[C@H]([C@@H](C)c2ccncc2)NC1=O [SEQ ID NO. 50] (cyclo([Ahp(2)][4Pal(3S-Me)][hSer]W[dHyp]N[Phe(4-COOH)][Trp(7-CN)][αMeS][Phe(4-CONH2)][Phe(4-CONH2)][Sar][Trp(βS-Me,7-OMe)][X1])) | 0.2 nM

Same assay, conditions: displacement of biotinylated peptide SEQ ID NO. 1 from sTNFR1; 20 point titration, 5-parameter fit based on Morrison equation (tight binding); read-out: TR-FRET Kd^app

SMILES | Kd
CCCC[C@@H]1NC(=O)[C@@H]2CC[C@@H](C2)NC(=O)[C@H]([C@@H](C)c2c[nH]c3c(OC)cccc23)NC(=O)CN(C)C(=O)[C@H](Cc2ccc(OCC(=O)O)cc2)NC(=O)[C@H](Cc2ccc(S(N)(=O)=O)cc2)NC(=O)[C@](C)(CO)NC(=O)[C@H](Cc2c[nH]c3c(C#N)cccc23)NC(=O)[C@H](Cc2ccc(OCC(=O)O)cc2)NC(=O)[C@H](CC(N)=O)NC(=O)[C@H]2C[C@H](N)CN2C(=O)[C@H](Cc2cn(CC(=O)O)c3ccccc23)NC(=O)[C@@H]2CC[C@@H](O)CN2C(=O)[C@H](Cc2ccncc2)NC1=O [SEQ ID NO. 18] (cyclo([4Pal][Pip(5R-OH)][Trp(1-CH2COOH)][dPro(4S-NH2)]NY(Carboxymethyl)[Trp(7-CN)][αMeS][Phe(4-SO2NH2)]Y(Carboxymethyl)[Sar][Trp(βS-Me,7-OMe)][X1][Nle])) | 0.08 nM
CCCC[C@@H]1NC(=O)[C@@H]2CC[C@@H](C2)NC(=O)[C@H]([C@@H](C)c2c[nH]c3c(OC)cccc23)NC(=O)CN(C)C(=O)[C@H](Cc2ccc(C(N)=O)cc2)NC(=O)[C@H](Cc2ccc(C(N)=O)cc2)NC(=O)[C@](C)(CO)NC(=O)[C@H](Cc2c[nH]c3c(C#N)cccc23)NC(=O)[C@H](Cc2ccc3c(c2)C(=O)NC3)NC(=O)[C@H](CC(N)=O)NC(=O)[C@H]2C[C@H](OCC(=O)O)CN2C(=O)[C@H](Cc2cn(CC(=O)O)c3ccccc23)NC(=O)[C@@H]2CC[C@@H](O)CN2C(=O)[C@H](Cc2ccncc2)NC1=O [SEQ ID NO. 22] (cyclo([4Pal][Pip(5R-OH)][Trp(1-CH2COOH)][dHyp](Carboxymethyl)N[X20][Trp(7-CN)][αMeS][Phe(4-CONH2)][Phe(4-CONH2)][Sar][Trp(βS-Me,7-OMe)][X1][Nle])) | 0.08 nM
CCCC[C@@H]1NC(=O)[C@@H]2CC[C@@H](C2)NC(=O)[C@H]([C@@H](C)c2c[nH]c3c(OC)cccc23)NC(=O)CN(C)C(=O)[C@H](Cc2ccc(CCC(=O)O)cc2)NC(=O)[C@H](Cc2ccc(S(N)(=O)=O)cc2)NC(=O)[C@](C)(CO)NC(=O)[C@H](Cc2c[nH]c3c(C#N)cccc23)NC(=O)[C@H](Cc2ccc(OCC(=O)O)cc2)NC(=O)[C@H](CC(N)=O)NC(=O)[C@H]2C[C@H](O)CN2C(=O)[C@H](Cc2c[nH]c3ncccc23)NC(=O)[C@@H]2CC[C@@H](O)CN2C(=O)[C@H](Cc2ccncc2)NC1=O [SEQ ID NO. 30] (cyclo([4Pal][Pip(5R-OH)][Trp(7-aza)][dHyp]NY(Carboxymethyl)[Trp(7-CN)][αMeS][Phe(4-SO2NH2)][Phe(4-CH2CH2COOH)][Sar][Trp(βS-Me,7-OMe)][X1][Nle])) | 0.07 nM
CCCC[C@@H]1NC(=O)[C@@H]2CC[C@@H](C2)NC(=O)[C@H]([C@@H](C)c2c[nH]c3c(OC)cccc23)NC(=O)CN(C)C(=O)[C@H](Cc2ccc(C(N)=O)cc2)NC(=O)[C@H](Cc2ccc(C(N)=O)cc2)NC(=O)[C@](C)(CO)NC(=O)[C@H](Cc2c[nH]c3c(C#N)cccc23)NC(=O)[C@H](Cc2ccc(C(=O)O)cc2)NC(=O)[C@H](CC(N)=O)NC(=O)[C@H]2C[C@H](O)CN2C(=O)[C@H](Cc2c[nH]c3ccccc23)NC(=O)[C@@H]2CC[C@@H](O)CN2C(=O)[C@H](Cc2ccncc2)NC1=O [SEQ ID NO. 45] (cyclo([4Pal][Pip(5R-OH)]W[dHyp]N[Phe(4-COOH)][Trp(7-CN)][αMeS][Phe(4-CONH2)][Phe(4-CONH2)][Sar][Trp(βS-Me,7-OMe)][X1][Nle])) | 0.05 nM
CCCC[C@@H]1NC(=O)[C@@H]2CC[C@@H](C2)NC(=O)[C@H]([C@@H](C)c2c[nH]c3c(OC)cccc23)NC(=O)CN(C)C(=O)[C@H](Cc2ccc(CN)cc2)NC(=O)[C@H](Cc2ccc(C(N)=O)cc2)NC(=O)[C@](C)(CO)NC(=O)[C@H](Cc2c[nH]c3c(C#N)cccc23)NC(=O)[C@H](Cc2ccc(C(=O)O)cc2)NC(=O)[C@H](CC(N)=O)NC(=O)[C@H]2C[C@H](O)CN2C(=O)[C@H](Cc2c[nH]c3ccccc23)NC(=O)[C@@H]2CC[C@@H](O)CN2C(=O)[C@H](Cc2ccncc2)NC1=O [SEQ ID NO. 48] (cyclo([4Pal][Pip(5R-OH)]W[dHyp]N[Phe(4-COOH)][Trp(7-CN)][αMeS][Phe(4-CONH2)][Phe(4-CH2NH2)][Sar][Trp(βS-Me,7-OMe)][X1][Nle])) | 0.15 nM
